Results as given in patent US20160193216A1 (Nimbus Iris, Inc., priority 2012, published 2016).
Where two headings read alike, the source gives them in different places.

How the values were obtained:
IRAK4 = target: T1, IRAK4 (Homo sapiens, UniProt Q9NWZ3); assay: IRAK-4 activity inhibition assay (Caliper); format: biochemical; conditions: 37 μM ATP, 3.5 nM IRAK4
T1 sequence (Q9NWZ3 1-460): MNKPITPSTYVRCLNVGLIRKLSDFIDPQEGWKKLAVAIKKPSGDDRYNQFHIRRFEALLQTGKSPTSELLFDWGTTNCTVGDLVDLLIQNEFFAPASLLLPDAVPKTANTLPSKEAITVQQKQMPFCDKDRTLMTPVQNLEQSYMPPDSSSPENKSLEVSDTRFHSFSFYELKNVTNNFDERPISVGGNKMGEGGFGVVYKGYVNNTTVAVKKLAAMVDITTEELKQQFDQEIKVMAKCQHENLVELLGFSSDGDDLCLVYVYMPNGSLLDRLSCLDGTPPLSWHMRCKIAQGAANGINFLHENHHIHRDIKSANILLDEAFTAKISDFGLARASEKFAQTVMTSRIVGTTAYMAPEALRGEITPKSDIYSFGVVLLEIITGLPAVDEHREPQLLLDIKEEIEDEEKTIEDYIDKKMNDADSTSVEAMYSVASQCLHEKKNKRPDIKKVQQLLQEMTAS

[1] = system: collagen-induced arthritis; assay: In vivo murine collagen-induced arthritis model; conditions: DBA mice, vs vehicle
Description: In Vivo Murine Collagen-Induced Arthritis Model Compounds of the present invention were also evaluated in mice in an in vivo efficacy model for inhibiting IRAK4-mediated arthritis. An exemplary protocol for this assay follows. Male DBA mice were immunized with collagen on day 0 and day 21 and randomly enrolled into groups upon onset of disease. […] Eight mice were enrolled per group with the exception of the naïve control group, which contained four mice. Day 1 was designated as the first treatment day, and mice were evaluated daily for clinical scores until day 11. The mice were weighed on alternating days.

Whole Blood = assay: In vitro LPS/R848-induced cytokine production assay in whole blood; format: cell-based, human; conditions: Homo sapiens
Description: In Vitro LPS/R848/CpG-Induced Cytokine Production Assays in hPBMC or Whole Blood
Compounds of the present invention were also studied in in vitro LPS/R848/CpG-induced cytokine production assays. Exemplary protocols follow.
[…] Cells were seeded in a 96-well plate with 130 ul/well of the cell suspension according to the plate map. 9 ul of 30 mM compound solution was added into the wells in the assigned rows, then serial solutions with 4× dilutions were made. That is, add 9 uL of 100% DMSO into each of the rest wells and take 3 uL of compound solution from the one-step higher concentration solution and mix well with the DMSO. For the second compound master plate, 196 uL of the growth medium (no serum media) were added into each of the wells and 4 uL of the compound solution from the first compound master plate was added and mixed with the media. Cells were treated for 0.5 h by adding 20 uL of the compound and the control solutions prepared in the second master plate to each well according to the plate map. […] Plates were sealed with sealing films and the plates were centrifuged at 3000 rpm at 4 degrees C. for 5 min. The supernatants were transferred, and 100 ul of working Capture antibody solution was added to each well. The plates were sealed and incubated overnight at RT. IL-6, IFN-α or TNF-α detection antibody labeled with biotin: Added 100 uL of the Detection Antibody solution to each well. Covered the plate and incubated for 2 h at RT. Added 100 uL of Streptavidin-HRP solution to each well. Covered the plate and incubate for 20 min at RT in dark. Added 100 uL of Substrate Solution to each well. Incubated for 20 min at RT in dark. Added 50 uL of Stop Solution to each well. Gently tapped the plate to ensure thorough mixing. Determined the optical density of each well immediately, using a microplate reader set to 450 nm and also read at 540 nm or 570 nm for correction if wavelength correction is not available.

ABC DLBCL Cells = assay: sensitization of ABC DLBCL cells to IRAK inhibitors by BTK knockdown; format: cell-based; conditions: BTK knockdown (FIG. 9)
Source text: FIG. 8 depicts the sensitization of ABC DLBCL Cells to IRAK Inhibitors by BTK knockdown.

## NC(=O)C[C@H]1CCc2sc3ncnc(O[C@H]4CC[C@H](N5CCOCC5)CC4)c3c21 [Compound I-67, 2-((R)-4-(((1r,4R)-4-morpholinocyclohexyl)oxy)-6,7-dihydro-5H-cyclopenta[4,5]thieno[2,3-d]pyrimidin-5-yl)acetamide]
IRAK4
  IC50: < 5000 nM
[1]; intraperitoneally 30 mg/kg twice a day
  Clinical scores, collagen-induced arthritis: efficacious compared to the vehicle
[1]; orally 30 mg/kg twice a day
  Clinical scores, collagen-induced arthritis: efficacious compared to the vehicle
Whole Blood; LPS 0.1 ug/mL, read-out: IL-6 production IC50
  IC50: ≤ 250 nM
Whole Blood; R848 1 uM, read-out: IFN-α production IC50
  IC50: ≥ 1000 nM
Whole Blood; R848 1 uM, read-out: TNF-α production IC50
  IC50: 500 to 1000 nM
ABC DLBCL Cells
  sensitization of ABC DLBCL Cells to compound by BTK knockdown: sensitization
